Test results taken from US20230203126A1, “A COMPOSITION COMPRISING S-ARRESTIN PEPTIDES” (WORG PHARMACEUTICALS (HANGZHOU) CO., LTD., priority 2019, published 2023).
No end group written: not given here.

Columns and labels:
[1] = test system: SAg-specific hybridoma cells with fresh or fixed APC (VAVY) cells, MHCII; assay: Antigen processing independent presentation system (APIPS) assay; type: cell-based, DR3tg mice; details: 10 or 25 µg/ml peptide, IL-2 ELISA after 48 h
Description: FIG. 10: Variants of peptide 15N3K are apitopes. The ability of variants of the 15N3K peptide to behave as apitopes (i.e. bind to an MHCII molecule and be presented to a T cell by an antigen-presenting cell without undergoing antigen processing) was tested using an APIPS assay. DR3tg mice were immunised with SAg and hybridoma’s were generated. 5*10^4 SAg-specific hybridoma cells were cultured with 5*10^4 fresh or fixed commercial APC (VAVY) cells. Cultures were stimulated with 10 or 25 µg/ml of peptide, as indicated in the graph. T cell activation was measured by IL-2 ELISA on supernatants collected after 48 h. The graph represents the mean of duplicate measurements ± SEM.
Apitopes (Antigen Processing-Independent epiTOPES) are capable of binding to an MHCII molecule and stimulating a response from SAg-specific T cells without further antigen processing. Variants of peptide 15N3K (SEQ ID NO: 3) were tested for their ability to bind to an MHCII molecule and be presented to a T cell hybridoma without further antigen processing in an in vitro antigen processing independent presentation system (APIPS) assay. In other words, peptides consisting of parts of peptide 15N3K and peptides with various degrees of sequence identity with peptide 15N3K were tested for their ability to behave as apitopes.
All but three of the peptides are apitopes.
Antigen-specific hybridoma clones were tested for their reactivity to the peptides, presented by fixed or not fixed (fresh) cells (APCs). 5x10^4 cells were cultured with 10 µg/ml and 25 µg/ml peptide and 5x10^4 fixed or fresh APCs. To fix APCs, cells were incubated with 0.5% paraformaldehyde (Merck, Darmstadt, Germany) (pH7) for 5 min at room temperature (RT). The fixation reaction was stopped by adding 0.4 M glycine (Sigma-Aldrich) and washing the cells in RPMI-10% FCS. After 48 h, antigen-induced IL-2 production was measured by ELISA (R&D Systems, Abingdon, UK).

[2] = biological target: HLA-DRA1*0101, DRB1*0301 (DR3) (Homo sapiens, UniProt P01903+P01911, A100K/A102G/A103R/A169T/F55Y/I96L/K41T/L162R/M171V/P40S/Q125H/Q178H/Q39Y/R42S/S66N/T106N/T262R/W38E/Y61H); assay: DR3
Description: (§1) Table printed on a drawing sheet, Figure 9
(§2) The patent's description of the figure: FIG. 9: Diverse patterns of in vitro peptide-MHC II binding for peptides 9K1, 17JK and 15N3K. Binding of peptides 9K1, 17JK and 15N3K to recombinant HLA-DRA1*0101, DRB1*0101 (DR1), DRB1*1501 (DR2), DRB1*0301 (DR3), DRB1*0401 (DR4), DRB1*1101 (DR11), DRB1*0405 (DR4*05) and DRB1*0901 (DR9) was assessed in vitro. IC50 values (µM) are presented and colour-coded per HLA-DR molecule. Low values (green) indicate strong binding, high values (red) indicate low(er) binding.
(§3) FIG. 9 depicts IC50 (µM) values of peptides 9K1K, 17JK and 15N3K binding to the indicated HLA-DR molecules and competing with a known competitor peptide. Values should be compared only within each HLA-DR molecule. Low IC50 values (green) indicate the strongest binder per HLA-DR molecule. Highest values per HLA-DR molecule (red) are indicative of the lowest binder for that HLA-DR molecule. Intermediate values are indicated in orange. […]
(§4) First copying reader's note: The sheet prints no unit; per the patent description the values are IC50 (µM) for peptide binding to the named HLA-DR molecules, with cell shading coding relative binding strength per HLA-DR molecule.
Where the first naming reader finds the target: description_of_the_figure: recombinant HLA-DRA1*0101, DRB1*0101 (DR1), DRB1*1501 (DR2), DRB1*0301 (DR3)

[3] = biological target: HLA-DRA1*0101, DRB1*0401 (DR4) (Homo sapiens, UniProt P01903+P01911, A100K/A169T/F76Y/I96L/K127E/L162R/M171V/N62H/P40V/Q125Y/R42H/S133A/S149N/S66Y/V115G/V209L/W38E); assay: DR4
Description: as §1, §2, §3, §4
Where the first naming reader finds the target: description_of_the_figure: recombinant HLA-DRA1*0101, DRB1*0101 (DR1), DRB1*1501 (DR2), DRB1*0301 (DR3), DRB1*0401 (DR4)

[4] = biological target: HLA-DRA1*0101, DRB1*0901 (DR9) (Homo sapiens, UniProt P01903+P01911, A100R/A103E/D57H/D86V/F55Y/F60I/F76Y/I96F/K127E/L162R/M171V/P40D/Q125H/Q99R/R33Q/R42F/S133A/S66N/T210M/V115G/W38K/Y107V/Y59G/Y89S); assay: DR9
Description: as §1, §2
FIG. 9 depicts IC50 (µM) values of peptides 9K1K, 17JK and 15N3K binding to the indicated HLA-DR molecules and competing with a known competitor peptide. Values should be compared only within each HLA-DR molecule. Low IC50 values (green) indicate the strongest binder per HLA-DR molecule. Highest values per HLA-DR molecule (red) are indicative of the lowest binder for that HLA-DR molecule. Intermediate values are indicated in orange. […] So, combining the peptides into a cocktail treatment, makes the treatment less restricted to a certain HLA-DR type.
as §4

Chain of HLA-DRA1*0101, DRB1*0301 (DR3) (P01903 26-254 limits assumed, other chains not shown): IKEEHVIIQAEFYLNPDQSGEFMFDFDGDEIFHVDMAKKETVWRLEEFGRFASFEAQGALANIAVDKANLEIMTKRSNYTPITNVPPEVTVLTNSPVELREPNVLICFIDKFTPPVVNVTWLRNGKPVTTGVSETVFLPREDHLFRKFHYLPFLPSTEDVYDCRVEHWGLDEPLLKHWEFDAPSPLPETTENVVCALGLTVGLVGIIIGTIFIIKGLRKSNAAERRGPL

With KKKVIFKKISRDKSVTIYLGKKK-NH2 [15N3K] the Apitope [1] was “Yes”, the IC50 [2] was 14.7 µM and the IC50 [3] was 840 nM. The IC50 [4] was 18.4 µM.
